What was measured:
CT26 xenograft tumors = experiment: Growth of CT26 xenograft tumors, Compound 1 alone or with anti-PD-1 (Example 2); assay type: in vivo, BALB/c mice; details: Compound 1 50 mg/kg i.p. qd 5 days/week from day 7; anti-PD-1 sub-effective dose i.p. days 7, 10 and 14; isotype group zero out of nine
Procedure: The effects of Compound 1, alone or combination with sub-effective doses of the checkpoint inhibitor, anti-PD-1, were assessed on the growth of CT26 xenograft tumors in BALB/c mice. Treatment-naïve tumor-bearing mice (i.e., isotype group) were compared with groups of mice receiving monotherapy of Compound 1 defined in Example 1, mice receiving a sub-effective dose of a checkpoint inhibitor (anti-PD-1 antibody), and mice receiving both Compound 1 and a sub-effective dose of anti-PD-1 antibody.
(§1) BALB/c mice were subcutaneously injected with CT26 cells at day 0 and then divided into four groups at day 7: (1) Compound 1 treatment, (50 mg/kg, i.p. qd), 5 days/week; (2) Isotype group, ip mlgG isotype at days 7, 10 and 14; (3) Anti-PD-1 group, administered i.p. at days 7, 10 and 14; and (4) Combination group, treated with Compound 1 and anti-PD-1 as group 1 and group 3. Tumor volumes were measured every 2 or 3 days. At day 17-18, tumors were excised, dissected, and used to make single cell suspensions. These tumor single cell suspensions were incubated with FC blocker (eBioscience) and then stained with antibodies on ice in the dark. Samples were acquired on a FACSCalibur, LSRII or LSRII yellow (BD Biosciences), and analyzed with FlowJo (Tree Star).
At the end of experiments, tumors were also weighed.

[1] = system: immune cells in the tumor microenvironment of CT26 tumors; experiment: Flow cytometry of immune cells in dissociated CT26 tumors (Example 1); assay type: in vivo, BALB/C mice; details: 50 mg/kg once daily i.p.; tumors isolated at thirty days post-injection; flow cytometry (FIG. 2)
Procedure: The tumors were then enzymatically dissociated into a single cell suspensions, stained with fluorophore-tagged antibodies and are analyzed by flow cytometry. Cells were sorted and analyzed for immune markers. […] In turn, it is believed this this allows the innate immune system to more efficiently target tumor cells, which is consistent with the results observed here (i.e., increased activation of T-cells in the tumor microenvironment).

CT26 murine cancer cells = experiment: Growth of CT26 murine colon carcinoma tumors in BALB/C mice (Example 1); assay type: in vivo; details: 50 mg/kg once daily i.p. from day 7, after 30 days, vs untreated control (FIG. 1)
Procedure: Aliquots of cancerous cells are injected into the subscapular space of BALB/C mice to induce colon carcinoma. The tumors are allowed to grow for 7 days, when tumor volume is measured. Once a tumor has formed, drug treatment is initiated (50 mg/kg Compound 1, once daily, i.p. in 0.5% methylcellulose vehicle) and tumor growth is observed and recorded daily. Compounds 1 is shown below:
The mice were sacrificed at thirty days post-injection, and the tumors are isolated from the mice.

[2] = system: tumor-infiltrating immune cells of CT26 tumors; experiment: FACS of tumor-infiltrating immune cells in CT26 tumors (Example 2); assay type: in vivo, BALB/c mice; details: FACS of tumors excised at day 17-18
Procedure: as §1

SMILES: CN1C(=O)c2c(nn(Cc3ccc(-c4cccc(F)n4)cc3)c2Nc2ccccc2)N2C1=N[C@@H]1CCC[C@@H]12 [Compound 1]
- mice showing tumor clearance (tumor volume smaller than 100 mm^3) (CT26 xenograft tumors): one out of five
- CD8 T-cells in the tumor microenvironment [1]: significant increases
- macrophage presence in the tumor microenvironment [1]: significant decrease
- monocytes in the tumor microenvironment [1]: significant increases
- tumor growth (CT26 murine cancer cells): significantly slowed tumor growth
- numbers of CD45+ tumor (infiltrating) macrophages [2]: significantly decreased numbers
- numbers of CD45+ tumor (infiltrating) monocytes [2]: significantly decreased numbers

Reference: patent US12599603B2, “Methods of treatment” (INTRA-CELLULAR THERAPIES, INC., priority 2019, dated 2026)
